From US7205273B2, “Fusogenic liposomes” (The University of British Columbia, priority 1996, dated 2007) come the findings set out here.

A short description of data set [1]: Lipid mixing (FRET) assay, NaCl-induced fusion of DOPE:DODAC liposomes. As to conditions: DOPE:DODAC:PEG-lipid 83:15:2, 300 mM NaCl, POPC sink, 37° C. The protocol: FIG. 16 illustrates the inhibition of fusion of DOPE:DODAC liposomes by PEG-PE. Liposomes were prepared from either DOPE:DODAC (85:15) or DOPE:DODAC:DMPE-PEG2000 (83:15:2). Fusion was assayed as described under FIG. 1 using 300 mM NaCl.
FIG. 17 illustrates the recovery fusogenic activity after PEG removal. Liposomes were prepared from either DOPE:DODAC:ceramide(C8:0)-PEG2000, 83:15:2 or […], 38:45:15:2. Fusion was assayed as described under FIG. 2 except that at the indicated times a 30 fold excess (over donors) of liposomes composed of POPC or POPC:cholesterol (55:45) was added.
FIG. 18 illustrates the effect of the lipid anchor on the rate of PEG-lipid removal. […] At zero time a 13-fold excess (over labelled vesicles) of POPC liposomes was added and the fluorescence intensity was measured at the indicated times. At the end of the assay Triton X-100 (0.5% final) was added to eliminate energy transfer and the % fusion was calculated from the change in efficiency of energy transfer. Maximum fusion was calculated from a standard curve of energy transfer efficiency against the molar fraction of Rh-PE in the membrane assuming complete mixing of labelled and unlabelled liposomes.
Lipid mixing was measured by a modification of the fluorescence resonance energy transfer (FRET) assay of Struck, et al. (Biochemistry, 20:4093–4099 (1981)). […]

Data set [2] in a line: 31P-NMR phase behaviour of equimolar DOPE:cholesterol mixtures with bilayer stabilizing component. It is filed as physicochemical. The note with it: DOPE:cholesterol:BSC 1:1:0.25, 0 to 60° C. The protocol: Lipid components were mixed in 1–2 ml of benzene:methanol (95:5, v/v) and then lyophilized for a minimum of 5 hours at a pressure of <60 millitorr using a Virtis lyophilizer equipped with a liquid N2 trap. Multilamellar vesicles (MLVs) were prepared by hydrating the dry lipid mixtures in 150 mM NaCl, buffered with 10 mM Hepes-NaOH, pH 7.4 (Hepes-buffered saline, HBS). Mixtures were vortexed to assist hydration. To produce large unilamellar vesicles (LUVs), MLVs were first frozen in liquid nitrogen and then thawed at 30° C. five times. LUVs were produced by extrusion of the frozen and thawed MLVs ten times through 2 stacked polycarbonate filters of 100 nm pore size at 30° C. and pressures of 200–500 psi (Hope, et al., Biochim. Biophys. Acta, 812:55–65 (1985)).
^31P-NMR spectra were obtained using a temperature controlled Bruker MSL200 spectrometer operating at 81 MHz. Free induction decays were accumulated for 2000 transients using a 4 μs, 90° pulse, 1 sec. interpulse delay, 20 KHz sweep width and Waltz decoupling. A 50 Hz line broadening was applied to the data prior to Fourier transformation. Samples were allowed to equilibrate at the indicated temperature for 30 minutes prior to data accumulation. Lipid concentrations of 30–70 mM were used.

In the case of “1-O-methyl-(poly(ethoxy)-O-succinyl-O-(egg)ceramide [egg ceramide-PEG2000]”, in data set [1], the “time for 50% maximal fusion” value is recorded as “over 20 hr”. The “phase preference by 31P-NMR” value in data set [2] was “exclusively bilayer up to 60 °C”.
